Laboratory results published in US6768019B2 (Cheil Jedang Corporation, priority 2001, dated 2004).

Assays:
cyclooxygenase-2 = target: T1, cyclooxygenase-2 (Mus musculus, UniProt Q05769); assay: Inhibition of cyclooxygenase-2 in aspirin-pretreated, LPS-stimulated mouse peritoneal macrophages (PGE2 ELISA); type: cell-based
T1 construct: Peritoneal fluid suspended with macrophages was extracted from a mouse peritoneal cavity; endogenous in cells; host or cells: primary mouse peritoneal macrophages, pretreated with 500 uM aspirin and stimulated with 10 ug/ml LPS
T1 sequence (Q05769 18-604): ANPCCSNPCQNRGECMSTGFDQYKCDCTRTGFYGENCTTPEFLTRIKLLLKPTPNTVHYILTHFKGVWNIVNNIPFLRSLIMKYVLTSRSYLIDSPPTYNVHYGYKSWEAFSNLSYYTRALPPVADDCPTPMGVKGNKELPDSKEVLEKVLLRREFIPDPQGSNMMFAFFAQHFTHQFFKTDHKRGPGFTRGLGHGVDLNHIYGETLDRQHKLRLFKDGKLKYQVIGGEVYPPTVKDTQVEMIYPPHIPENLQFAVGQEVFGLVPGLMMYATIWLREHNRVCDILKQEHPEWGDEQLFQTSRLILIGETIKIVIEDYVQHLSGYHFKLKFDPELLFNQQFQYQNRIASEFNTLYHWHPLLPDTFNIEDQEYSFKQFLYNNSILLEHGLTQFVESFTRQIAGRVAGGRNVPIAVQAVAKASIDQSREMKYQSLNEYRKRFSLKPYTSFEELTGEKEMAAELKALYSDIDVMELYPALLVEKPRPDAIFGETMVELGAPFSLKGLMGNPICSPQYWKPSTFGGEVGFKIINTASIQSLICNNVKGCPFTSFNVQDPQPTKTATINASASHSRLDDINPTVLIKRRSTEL
Experimental: Second, the cyclooxygenase-2 was examined through the following procedure.
Peritoneal fluid suspended with macrophages was extracted from a mouse peritoneal cavity and centrifuged at 4° C., 1,000 rpm for 2 minutes. Then, the supernatant was removed, suspended using incomplete RPMI medium [PC/SM (penicilin/streptomycin)] and again centrifuged under the same condition. […] Then, the cell number was calculated with the hemocytometer and adjusted to reach 1×10^6 cells/ml of cell concentration in the final cell suspension. The resulting suspension was treated with aspirin, adjusting 500 μM of final concentration and transferred into each well of 96-well plate in 100 μl respectively. Again, it was left at 37° C. in 5% CO2 in the incubator for about 2 hours in order to attach macrophages. […] The resulting cell was cultivated in the incubator at 37° C. in 5% CO2 for about 12˜16 hours. Then, arachidonic acid was added, adjusting to 10 μM of a final concentration and incubated at 37° C. for more 10 minutes and the supernatant of the reacted solution (˜180 μl) was recovered to finish the reaction.

cyclooxygenase-1 = target: T2, cyclooxygenase-1 (Mus musculus, UniProt P22437); assay: Inhibition of cyclooxygenase-1 in mouse peritoneal macrophages (PGE2 ELISA); type: cell-based
T2 construct: endogenous in cells; host or cells: primary mouse peritoneal macrophages (unstimulated)
T2 sequence (P22437 27-602): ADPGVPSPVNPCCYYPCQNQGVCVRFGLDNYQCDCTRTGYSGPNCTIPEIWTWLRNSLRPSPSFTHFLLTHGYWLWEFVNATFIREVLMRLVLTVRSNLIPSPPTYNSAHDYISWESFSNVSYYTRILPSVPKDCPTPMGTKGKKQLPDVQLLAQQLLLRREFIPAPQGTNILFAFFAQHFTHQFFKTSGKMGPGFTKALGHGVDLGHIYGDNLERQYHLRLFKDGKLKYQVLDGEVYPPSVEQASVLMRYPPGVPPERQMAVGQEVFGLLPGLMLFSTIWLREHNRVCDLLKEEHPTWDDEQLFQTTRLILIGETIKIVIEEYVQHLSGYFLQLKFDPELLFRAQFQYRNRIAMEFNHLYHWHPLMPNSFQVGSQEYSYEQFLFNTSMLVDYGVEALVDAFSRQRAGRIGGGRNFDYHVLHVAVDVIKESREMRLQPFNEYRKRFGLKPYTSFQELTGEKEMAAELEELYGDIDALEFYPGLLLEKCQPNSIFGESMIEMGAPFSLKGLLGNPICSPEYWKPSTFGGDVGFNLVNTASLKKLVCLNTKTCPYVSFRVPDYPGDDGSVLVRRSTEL
Experimental: First of all, the cyclooxygenase-1 was examined through the following procedure.
Peritoneal fluid in which macrophages were suspended was extracted from a mouse peritoneal cavity and centrifuged at 4° C., 1,000 rpm for 2 minutes. Then, the supernatant was removed, suspended with 20 ml of incomplete (no serum) RPMI medium [PC/SM (penicilin/streptomycin)] and again centrifuged under the same condition. […] Then, the cell number was calculated with the hemocytometer and adjusted to reach 1×10^6 cells/ml of cell concentration in the final cell suspension. 100 μl of the resulting suspension was transferred into each well of 96-well plate and left at 37° C. in 5% CO2 with the incubator for about 2 hours in order to attach macrophages. […] The resulting cell was cultivated in the incubator at 37° C. in 5% CO2 for about 12˜16 hours. Then, arachidonic acid was added, adjusting to 10 μM of a final concentration and incubated at 37° C. for more 10 minutes and the supernatant of the reacted solution (˜180 μl) was recovered to finish the reaction.

[1] = in words, versus comparative substance

Row | Compound | Inhibitory effects of cyclooxygenase (COX), COX-2 (cyclooxygenase-2; 30 nM) | Inhibitory effects of cyclooxygenase (COX), COX-2 (cyclooxygenase-2; 100 nM) | Inhibitory effects of cyclooxygenase (COX), COX-2 (cyclooxygenase-2; 300 nM) | Inhibitory effects of cyclooxygenase (COX), COX-1 (cyclooxygenase-1; 3 μM) [% inhibition] | Inhibitory effects of cyclooxygenase (COX), COX-1 (cyclooxygenase-1; 10 μM) [% inhibition] | Inhibitory effects of cyclooxygenase (COX), COX-1 (cyclooxygenase-1; 30 μM) [% inhibition] | selectivity of cyclooxygenase-2 (cyclooxygenase-2; in words, COX-2 over COX-1) | inhibition effect against cyclooxygenase-2 compared with comparative substance (cyclooxygenase-2; [1]) | inhibition effect against cyclooxygenase-1 compared with comparative substance (cyclooxygenase-1; [1])
1 | CS(=O)(=O)c1ccc(/C=C2/C(=O)CCc3ccccc32)cc1 [Example 1, (E)-1-(4-methanesulfonyl-benzylidene)-3,4-dihydro-1H-naphthalene-2-one] | ˜0 % inhibition | ˜0 % inhibition | ˜0 % inhibition | 33.2 | 40.7 | 45.8 |  |  | 
2 | CS(=O)(=O)c1ccc(C=C2/C(=N/O)CCc3ccccc32)cc1 [Example 2, (E)-1-(4-methanesulfonyl-benzylidene)-3,4-dihydro-1H-naphthalene-2-one oxime] | 15.7 % inhibition | 20.7 % inhibition | 22 % inhibition | 56.7 | 68.7 | 80.4 |  |  | 
3 | CCO/N=C1\CCc2ccccc2C1=Cc1ccc(S(C)(=O)=O)cc1 [Example 3, (E)-1-(4-methanesulfonyl-benzylidene)-3,4-dihydro-1H-naphthalene-2-one O-ethyl Oxime] | 50.1 % inhibition | 58.8 % inhibition | 70.2 % inhibition | 60.4 | 64.4 | 74.6 |  |  | 
4 | CO/N=C1\CCc2ccccc2C1=Cc1ccc(S(C)(=O)=O)cc1 [Example 4, (E)-1-(4-methanesulfonyl-benzylidene)-3,4-dihydro-1H-naphthalene-2-one O-methyl Oxime] | 55.4 % inhibition | 69.9 % inhibition | 81.5 % inhibition | 60.3 | 71.1 | 80.1 |  |  | 
5 | CS(=O)(=O)c1ccc(C=C2/C(=N/OCc3ccccc3)CCc3ccccc32)cc1 [Example 5, (E)-1-(4-methanesulfonyl-benzylidene)-3,4-dihydro-1H-naphthalene-2-one O-benzyl Oxime] | 51.2 % inhibition | 55.4 % inhibition | 61.4 % inhibition | 39.9 | 47.1 | 54.3 |  |  | 
6 | CS(=O)(=O)c1ccc(-c2[nH]nc3c2-c2ccccc2CC3)cc1 [Example 6, 1-(4-methanesulfonyl-phenyl)-4,5-dihydro-2H-benzo[e]indazole] | 33.4 % inhibition | 46.6 % inhibition | 54.9 % inhibition | 52.3 | 57.3 | 64.8 |  |  | 
7 | CS(=O)(=O)c1ccc(-c2onc3c2-c2ccccc2CC3)cc1 [Example 7, 1-(4-methanesulfonyl-phenyl)-4,5-dihydro-naphto[2,1-c]isooxazole] | 59.8 % inhibition | 70.6 % inhibition | 76.8 % inhibition | 30 | 44.1 | 56.4 | better than any other substances | more excellent than a comparative substance | much lower level than a comparative substance
8 | CC(=O)O/N=C1\CCc2ccccc2C1=Cc1ccc(S(C)(=O)=O)cc1 [Example 8, (E)-1-(4-methanesulfonyl-benzylidene)-3,4-dihydro-1H-naphthalene-2-one O-acetyl-oxime] | 22.1 % inhibition | 28.6 % inhibition | 29.6 % inhibition | 7.6 | 32.3 | 53.9 |  |  | 
9 | CS(=O)(=O)c1ccc(C=C2/C(=N/OC(=O)COCc3ccccc3)CCc3ccccc32)cc1 [Example 9, (E)-1-(4-methanesulfonyl-benzylidene)-3,4-dihydro-1H-naphthalene-2-one O-benzyloxyacetyl-oxime] | 20.4 % inhibition | 25.5 % inhibition | 30.1 % inhibition | 22.8 | 31.1 | 42.1 |  |  | 
10 | Cn1nc2c(c1-c1ccc(S(C)(=O)=O)cc1)-c1ccccc1CC2 [Example 10, 1-(4-methanesulfonyl-phenyl)-2-methyl-4,5-dihydro-2H-benzo[e]imidazole] | 20.2 % inhibition | 31.8 % inhibition | 61.0 % inhibition | 49.8 | 55.3 | 61.5 |  |  | 
